# Source: PMC8767159, “Multiparameter Optimization of Trypanocidal Cruzain Inhibitors With In Vivo Activity and Favorable Pharmacokinetics” (Frontiers in Pharmacology, 2022)
# Like-named read-outs stand apart in the source and are kept apart here.
# Legend:
# [1] = In vivo pharmacokinetics in male CD1 mice; design: species or system mouse; settings: for clearance: plasma clearance, read-out: CLp (L/h/kg) IV (converted); for C0 / AUC / half-life / Vd / Cmax / Tmax / bioavailability: plasma; for bioavailability: oral bioavailability
# Method: The in vivo pharmacokinetic profiles of the compounds were determined using male CD1 mice weighing […] ([Davies and Morris, 1993]; [Liu and Jia, 2007]). The compounds were administered in a single dose orally (0.5 mg/kg) and intravenously (0.5 mg/kg). Stock solutions of the compounds in DMSO were diluted in Tween 80, PEG-400, and D5W (5% dextrose in water) at a ratio of 2:5:20:73 (v/v). The injection volume was 10 ml/kg. The remaining plasma concentration was monitored over time by LC-MS/MS by collecting blood samples (40 μl) at 10, 25, and 50 min and 1, 3, 6, 9, 12, and 24 h after administration of the compound.
# For the biotransformation experiments and analysis of metabolites in microsomes, an Ultra-High-Pressure Liquid Chromatography instrument (UHPLC, Thermo Accela, Waltham, MA) ([Spaggiari et al., 2014]) connected to an automatic sample injector and a 1250 series pump was used. The UHPLC system was connected to a Thermo Fisher (Waltham, MA) LTQ Orbitrap mass spectrometer. For all other analyses, an AB Sciex Triple Quad 5500 coupled to a UHPLC equipped with a UV 1290 diode detector (Agilent Technologies, Santa Clara, CA) and a CTC PAL self-collecting system (LEAP Technologies, Carrboro, NC) was used. Q1 MS positive ion mode (300–500 Da) was used to detect the ions of the parent compounds. The UV detector was operated in spectral mode (250–280 nm). A Hypersil Gold C18 (2.1 mm × 100 mm, 1.9 µm, Thermo Fisher) HPLC column was used. The mobile phases were solvent A (0.1% formic acid in water) and solvent B (0.1% formic acid in ACN). The flow was adjusted to 0.55 ml/min, and the injection volume was adjusted to […]. The gradient started with 1% solvent B for 0.4 min, reached 40% (solvent B) in 2.3 min and 95% (solvent B) in 0.67 min, was maintained for 0.5 min, and returned to the initial condition of 1%. This condition was maintained for 1 min before injection of the next sample. The peak area ratio (peak area of the test compounds/peak area of the control compounds) was converted to the percentage of remaining compound, with the 0 min time point ratio set to 100%. T½ and CLint were calculated from the percentage of remaining compound versus the incubation time. From the resulting function, the slope (k) was determined. The equations T1/2 (min) = ln(2)/k and CLint in vitro (μL/min/mg) = k*1000/0.25 were used to determine T½ and CLint.
# [2] = Cytotoxicity MTS assay in HFF-1 fibroblasts; format: cell-based; settings: human HFF-1 fibroblasts
# Method: The synthesized compounds were evaluated for their cytotoxicity against HFF-1 cells using the MTS assay (Promega, Madison, WI) ([Barltrop et al., 1991]) as previously described ([Ferreira et al., 2019]). HFF-1 fibroblasts were plated at 2 × 10^3/well in 96-well culture plates in RPMI 1640 without phenol red enriched with 10% FCS and incubated overnight at 37°C and 5% CO2. Next, 7 concentrations (0.1–100 µM) of the compounds were added in 3-fold serial dilutions, each concentration in triplicate, and the plates were incubated for 72 h at 37°C and 5% CO2. Next, 20 µl of MTS was added to each well, and the plates were incubated for an additional 4 h at 37°C and 5% CO2. The absorbance was measured at 490 nm using a spectrophotometer, and the data were transferred to SigmaPlot 10.0 (Systat Software Inc., Erkrath, Germany) to determine the IC50 values. Doxorubicin (Sigma–Aldrich) was used as a positive control, and untreated wells (100% growth) were used as negative controls in all plates. All compounds were tested in two independent assays.
# rhodesain = rhodesain (Trypanosoma brucei rhodesiense, UniProt Q95PM0); assay: Rhodesain fluorescence-based inhibition assay (Z-FR-AMC); format: biochemical; settings: Table S3; compound 100 µM
# Sequence of rhodesain (Q95PM0 entry or part of it): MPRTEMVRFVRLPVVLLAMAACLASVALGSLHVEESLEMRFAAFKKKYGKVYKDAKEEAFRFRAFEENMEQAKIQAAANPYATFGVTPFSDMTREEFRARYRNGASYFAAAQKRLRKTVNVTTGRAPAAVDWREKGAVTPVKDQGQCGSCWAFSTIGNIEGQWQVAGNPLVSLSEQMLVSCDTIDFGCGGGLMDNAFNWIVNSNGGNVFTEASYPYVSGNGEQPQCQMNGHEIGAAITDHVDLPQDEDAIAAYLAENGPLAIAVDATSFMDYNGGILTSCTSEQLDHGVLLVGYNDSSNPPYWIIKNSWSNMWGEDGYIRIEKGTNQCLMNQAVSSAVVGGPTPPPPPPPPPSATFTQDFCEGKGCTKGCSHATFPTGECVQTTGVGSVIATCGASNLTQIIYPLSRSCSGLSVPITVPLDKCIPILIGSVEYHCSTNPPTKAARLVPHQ
# Method: Rhodesain activity was measured using a fluorescence-based assay as previously described ([Fonseca et al., 2015]). The cleavage rates of the fluorogenic substrate Z-Phe-Arg-aminomethyl coumarin (Z-FR-AMC) were monitored at wavelengths of 340 nm for excitation and 440 nm for emission. All assays were performed in triplicate in a 0.1 M sodium acetate buffer, pH 5.5, with 1 mM beta-mercaptoethanol and 0.01% Triton X-100. The final concentration of rhodesain was 3 nM, and the substrate concentration was 2.5 μM. The cleavage of the substrate was followed by continuous reading for 5 min, and enzyme activity in the presence of 100 μM of each potential inhibitor was calculated based on initial velocity rates compared to DMSO controls. All compounds were tested in triplicate in three independent experiments.
# T. cruzi (Y strain) = assay: In vivo trypanocidal activity in mice infected with T. cruzi (Y strain); design: species or system Trypanosoma cruzi; settings: for % reduction of peak parasitemia: vs vehicle
# Method: Thirty-day-old female Swiss mice weighing 20–25 g and procured from the Center for the Development of Experimental Models for Medicine and Biology (CEDEME/UNIFESP) served as the subjects for these experiments. Animals were housed (5–6 per cage) in polypropylene cages and kept under controlled temperature (22–23°C) and humidity on a 12-h light/dark cycle (12 h light, 12 h dark; lights on at 6:30 am). Rodent chow and water were available ad libitum throughout the experiments. The Committee of Ethics in Research of the Universidade Federal de São Paulo approved all the experiments (CEUA n° 5301080816).
# Treatment started on day five after infection with T. cruzi. The following parameters were evaluated in these experiments: level of parasitemia after the treatment, suppression of peak parasitemia (day seven after the infection), and reduction of parasitemia on the peak day (day seven after infection). Parasitemia was expressed as the number of T. cruzi trypomastigotes per 5 µl of blood and was calculated using the Brener method ([Brener, 1962]). […] On the seventh day of treatment, when parasitemia reached its peak, one-way ANOVA indicated a treatment effect (F3,16 = 7.47; p = 0.002). […] This dose-response effect is likely associated with the modulation of physiological systems that increase the susceptibility of the animals to infection with T. cruzi at high doses of the compound. […] The results of the in vivo studies indicate a moderate ability of 28 to suppress peak parasitemia at 150 mg/kg.
# [3] = Table S6, plasma clearance corrected for the fraction unbound
# [4] = male, CD1, mouse, 0.5 mg/kg, Table S6, IV, mice
# [5] = male, CD1, mouse, 0.5 mg/kg, Table S6, IV, mice, read-out: AUC (ng*h/mL) IV
# [6] = male, CD1, mouse, 0.5 mg/kg, Table S6, IV, mice, read-out: T1/2(h) IV (converted)
# [7] = male, CD1, mouse, 0.5 mg/kg, Table S6, IV, mice, read-out: VSS (L/kg) IV
# [8] = male, CD1, mouse, 0.5 mg/kg, Table S6, PO, mice
# [9] = male, CD1, mouse, 0.5 mg/kg, Table S6, PO, mice, read-out: AUC (ng*h/mL) PO
# [10] = male, CD1, mouse, 0.5 mg/kg, Table S6, mice
# [11] = male, CD1, mouse, 0.5 mg/kg, Table S6, PO, mice, read-out: T1/2 (h) PO (converted)
# [12] = 150 mg/kg, gavage, five daily doses from day 5 after infection, day 7, female Swiss mice
# [13] = 300 mg/kg, gavage, five daily doses, day 7, female Swiss mice
# [14] = Table 6, plasma clearance corrected for the fraction unbound, IV
# [15] = mouse, 0.5 mg/kg, Table 6, male CD1 mice
# [16] = mouse, Table 6, IV 0.5 mg/kg, male CD1 mice
# [17] = mouse, Table 6, IV 0.5 mg/kg, male CD1 mice, read-out: AUC (ng*h/ml) IV
# [18] = mouse, Table 6, IV 0.5 mg/kg, male CD1 mice, read-out: T1/2 (h) IV (converted)
# [19] = mouse, Table 6, IV 0.5 mg/kg, male CD1 mice, read-out: V SS (L/kg) IV
# [20] = mouse, Table 6, PO 0.5 mg/kg, male CD1 mice
# [21] = mouse, Table 6, PO 0.5 mg/kg, male CD1 mice, read-out: AUC (ng*h/ml) PO
# [22] = Table 6, PO 0.5 mg/kg, male CD1 mice
Structure (SMILES),"CLpu [1, 3] [mL/min/kg]","clearance [1, 4] [L/h/kg]","C0 [1, 4] [ng/mL]","AUC [1, 5] [ng·h/mL]","half-life [1, 6] [h]","Vd [1, 7] [L/kg]","Cmax [1, 8] [ng/mL]","Tmax [1, 8] [min]","AUC [1, 9] [ng·h/mL]","bioavailability [1, 10] [%]",IC50 at 72 h [2] [µM],inhibition at 100 µM (rhodesain) [%],further results
CC(=O)Nc1cccc(OCC(=O)NCCc2nc3ccccc3[nH]2)c1 [Compound 3],242.5,2.31,12000,916,0.35,0.45,9,26.4,9.91,1,> 100,41,–
NC(=O)Cn1c(CCNC(=O)COc2ccccc2)nc2ccccc21 [Compound 28],66.3,0.73,1930,1420,0.52,0.43,275,30.6,499,35,> 100,–,"half-life [1, 11]: 0.82 h; reduction in parasitemia levels at lower doses (T. cruzi (Y strain); 75 mg/kg and 37.5 mg/kg, Supplementary Figure S10): no reduction; % reduction of peak parasitemia (T. cruzi (Y strain); [12]): 36.9%; increase in the peak parasitemia compared with the vehicle (T. cruzi (Y strain); [13]): 13%; % reduction of peak parasitemia (T. cruzi (Y strain); [13]): -13%"
Nc1cccc(OCC(=O)NCCc2nc3ccccc3[nH]2)c1 [Compound 9],–,–,–,–,–,–,–,–,–,–,–,40,–
O=C(COc1ccc2cc(O)ccc2c1)NCCc1nc2ccccc2[nH]1 [Compound 10],314,6.52,660,156,0.14,1.21,–,–,–,0,> 100,60,–
O=C(COc1ccc2ccc(O)cc2c1)NCCc1nc2ccccc2[nH]1 [Compound 11],8011,12.9,400,77,0.13,1.92,–,–,–,–,–,67,–
O=C(COc1ccc2ccccc2c1Br)NCCc1nc2ccccc2[nH]1 [Compound 34],–,–,–,–,–,–,–,–,–,–,> 30,–,"CLpu (L/h/kg) [1, 14]: 2,874.7 L/h/kg; bioavailability [1, 15]: 5.6%; C0 [1, 16]: 255 ng/mL; AUC [1, 17]: 116 ng·h/mL; half-life [1, 18]: 0.3 h; Vd [1, 19]: 1.9 L/kg; Cmax [1, 20]: 7.6 ng/mL; Tmax [1, 20]: 18 min; AUC [1, 21]: 6.5 ng·h/mL; half-life ([1]; mouse, Table 6, PO 0.5 mg/kg, male CD1 mice, read-out: T1/2 (h) PO (converted)): 0.6 h; clearance [1, 16]: 7.6 L/h/kg"
"O=C(Cn1ccnc1[N+](=O)[O-])NCc1ccccc1 [BZ, benznidazole, reference compound]",16.7,1,961,1020,0.8,1.1,404,24,1040,90,> 100,–,"AUC (ng*h/ml) PO [1, 22]: 1.040 ng·h/mL; T1/2 (h) PO [1, 22]: 1.5 h; CLpu [1, 14]: 16.7 mL/min/kg; half-life [1, 11]: 1.5 h; % reduction of peak parasitemia (T. cruzi (Y strain); [12]): 100%"
COc1ccc2cc(OCC(=O)NCCc3nc4ccccc4[nH]3)ccc2c1 [Compound 12],–,–,–,–,–,–,–,–,–,–,–,56,–
O=C(COc1ccccc1Br)NCCc1nc2ccccc2[nH]1 [Compound 18],–,–,–,–,–,–,–,–,–,–,> 100,–,"CLpu [1, 14]: 1728 mL/min/kg; bioavailability [1, 15]: 1.2%; C0 [1, 16]: 283 ng/mL; AUC [1, 17]: 84 ng·h/mL; half-life [1, 18]: 0.2 h; Vd [1, 19]: 1.8 L/kg; Tmax [1, 20]: 18 min; AUC [1, 21]: 1 ng·h/mL; clearance [1, 16]: 3.2 L/h/kg"
